Data on ten compounds can be found in PMC9267968, “Continued Structural Exploration of Sulfocoumarin as Selective Inhibitor of Tumor-Associated Human Carbonic Anhydrases IX and XII” (Molecules, 2022).

In general, Ki refers to a dissociation constant, usually derived from enzyme kinetics or from competition with a known ligand. For orientation: melting point means the temperature, or range, at which the solid turns liquid.

For one data set, the target named is T1, hCA I (Homo sapiens, UniProt P00915).
T1 construct: made in house
T1 sequence (P00915 whole entry): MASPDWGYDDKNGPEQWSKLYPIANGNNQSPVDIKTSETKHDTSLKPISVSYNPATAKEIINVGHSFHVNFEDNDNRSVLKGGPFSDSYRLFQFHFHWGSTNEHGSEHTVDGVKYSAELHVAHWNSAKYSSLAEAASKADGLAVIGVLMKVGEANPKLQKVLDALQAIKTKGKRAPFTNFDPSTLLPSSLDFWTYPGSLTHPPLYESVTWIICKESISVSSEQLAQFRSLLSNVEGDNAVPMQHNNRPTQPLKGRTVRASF
Put plainly: stopped-flow CO2 hydrase assay, hCA I inhibition. The format is biochemical. The settings on record: 6 h incubation of enzyme and inhibitor; mean from 3 different assays, errors 5-10%; read-out: KI (nM) CA I. On the procedure:
(§1) For this reason, we herein report a 6 h incubation time instead.
(§2) An Applied Photophysics stopped-flow instrument was used for assaying the CA catalyzed CO2 hydration activity. […] The uncatalyzed rates were determined in the same manner and subtracted from the total observed rates. Stock solutions of inhibitor (0.1 mM) were prepared in distilled–deionized water and dilutions up to 0.01 nM were done thereafter with the assay buffer. Inhibitor and enzyme solutions were preincubated together for 6h at room temperature prior to assay, in order to allow for the formation of the E-I complex. The inhibition constants were obtained by non-linear least-squares methods using PRISM 3 and the Cheng–Prusoff equation and represent the mean from at least three different determinations. […] All CA isoforms were recombinant ones obtained in-house.

Another data set deals with T2, hCA II (Homo sapiens, UniProt P00918).
T2 construct: made in house
The data set is described as follows: stopped-flow CO2 hydrase assay, hCA II inhibition. Type of data set: biochemical. The settings on record: 6 h incubation of enzyme and inhibitor; mean from 3 different assays, errors 5-10%; read-out: KI (nM) CA II. As for the experimental part:
as §1, §2

In another data set the target is T3, hCA IX (Homo sapiens, UniProt Q16790).
T3 construct: made in house
Put plainly: stopped-flow CO2 hydrase assay, hCA IX inhibition. Type of data set: biochemical. The following applies: 6 h incubation of enzyme and inhibitor; mean from 3 different assays, errors 5-10%; read-out: KI (nM) CA IX. On the procedure:
as §1, §2

The next data set addresses T4, hCA XII (Homo sapiens, UniProt O43570).
T4 construct: made in house
The data set is described as follows: biochemical. As for the experimental part: as §1, §2

[1] abbreviates: 6 h incubation of enzyme and inhibitor, mean from 3 different assays, errors 5-10%, read-out: KI (nM) CA XII.

Where two headings read alike, the source gives them in different places.

T4 sequence (O43570 25-354): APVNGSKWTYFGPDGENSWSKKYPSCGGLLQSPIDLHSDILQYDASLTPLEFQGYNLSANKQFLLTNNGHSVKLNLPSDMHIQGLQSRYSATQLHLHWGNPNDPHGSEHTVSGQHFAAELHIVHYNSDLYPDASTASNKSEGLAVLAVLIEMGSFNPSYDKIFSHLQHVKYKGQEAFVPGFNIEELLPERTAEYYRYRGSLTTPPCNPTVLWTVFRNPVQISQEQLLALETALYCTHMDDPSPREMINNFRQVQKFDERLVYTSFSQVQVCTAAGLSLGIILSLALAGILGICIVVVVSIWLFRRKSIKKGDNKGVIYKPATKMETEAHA

`COc1ccc(NC(=O)C2=Cc3ccccc3OS2(=O)=O)cc1` [Compound 41, N-(4-methoxyphenyl)benzo[e][1,2]oxathiine-3-carboxamide 2,2-dioxide] returned a melting point of 231 to 233 °C. Further, the Ki on hCA I is greater than 100000 nM. Further, the Ki on hCA II was greater than 100000 nM. Besides, at hCA IX, the Ki was determined as 8230 nM. For the same compound, the Ki at hCA XII came to 8550 nM.

On to `CCOC(=O)C1=Cc2ccc(OC)cc2OS1(=O)=O` [Compound 35, ethyl 7-methoxybenzo[e][1,2]oxathiine-3-carboxylate 2,2-dioxide], for which the melting point was in the range of 167 to 169 °C. Further, the Ki at hCA I was greater than 100000 nM. Moreover, on hCA II, the Ki was greater than 100000 nM. Also, the inhibition constant (Ki) at hCA IX is 1080 nM. The same compound came in with a Ki on hCA XII of 1530 nM.

The compound `COc1ccc2c(c1)OS(=O)(=O)C(C(=O)Nc1ccc(Br)cc1)=C2` [Compound 44, N-(4-bromophenyl)-7methoxybenzo[e][1,2]oxathiine-3-carboxamide 2,2-dioxide] returned a melting point of 272 to 275 °C. The inhibitory constant (Ki) at hCA I was greater than 100000 nM. The Ki at hCA II is greater than 100000 nM. Also, the Ki at hCA IX turned out to be 51500 nM. Further, the affinity at hCA XII corresponds to a Ki of 42500 nM.

`O=[N+]([O-])c1cccc(COc2ccc3c(c2)OS(=O)(=O)c2ccccc2-3)c1` [Compound 31, 3-((3-nitrobenzyl)oxy)dibenzo[c,e][1,2]oxathiine 6,6-dioxide]: the melting point was in the range of 248 to 251 °C. Further, the Ki at hCA I is greater than 100000 nM. Also, at hCA II, the Ki was greater than 100000 nM. Also, the Ki on hCA IX amounted to 898 nM. The Ki at hCA XII (setting [1]) came to 1370 nM.

For the compound `O=S1(=O)Oc2cc(OCc3ccccc3)ccc2-c2ccccc21` [Compound 27, 3-(benzyloxy)dibenzo[c,e][1,2]oxathiine 6,6-dioxide], the melting point lay in the range of 232 to 235 °C. On hCA I, the Ki was greater than 100000 nM. Also, the Ki at hCA II was greater than 100000 nM. On hCA IX, the Ki was determined as 681 nM. Also, the Ki at hCA XII (setting [1]) was determined as 911 nM.

As for `COc1ccc(NC(=O)C2=Cc3ccc(OC)cc3OS2(=O)=O)cc1` [Compound 46, N-(4-methoxyphenyl)-7-methoxybenzo[e][1,2]oxathiine-3-carboxamide 2,2-dioxide], the melting point was in the range of 238 to 240 °C. The Ki at hCA I is greater than 100000 nM. In addition, on hCA II, the Ki is greater than 100000 nM. Besides, on hCA IX, the Ki was found to be 4370 nM. The same compound had a Ki at hCA XII of 6550 nM.

`CC1=CS(=O)(=O)Oc2cc(O)ccc21` [Compound 12, 7-Hydroxy-4-methylbenzo[e][1,2]oxathiine 2,2-dioxide] returned a melting point of 172 to 175 °C. For the same compound, the Ki on hCA I worked out at 9960 nM. The Ki on hCA II came to 3860 nM. The Ki on hCA IX is 81.7 nM. Besides, the Ki on hCA XII (setting [1]) amounted to 55 nM.

As for `O=S1(=O)C=Cc2ccc(OCc3ccc(F)cc3)cc2O1` [Compound 14, 7-((4-Fluorobenzyl)oxy)benzo[e][1,2]oxathiine 2,2-dioxide], the melting point was in the range of 197 to 199 °C. Further, the Ki on hCA I was greater than 100000 nM. Besides, on hCA II, the Ki was greater than 100000 nM. For the same compound, the Ki on hCA IX turned out to be 22.9 nM. Moreover, at hCA XII (setting [1]), the Ki amounted to 19.2 nM.

Regarding `CC1=CS(=O)(=O)Oc2cc(OCc3cccc([N+](=O)[O-])c3)ccc21` [Compound 22, 7-((3-nitrobenzyl)oxy)-4-methylbenzo[e][1,2]oxathiine 2,2-dioxide], the melting point fell in the range of 239 to 241 °C. For the same compound, at hCA I, the Ki is greater than 100000 nM. For the same compound, on hCA II, the Ki was greater than 100000 nM. For the same compound, at hCA IX, the Ki was found to be 61.4 nM. Besides, the Ki on hCA XII (setting [1]) stood at 136 nM.

`COc1ccc2c(c1)OS(=O)(=O)c1ccccc1-2` [Compound 25, 3-methoxydibenzo[c,e][1,2]oxathiine 6,6-dioxide]: the melting point was 180 to 183 °C. In addition, the Ki at hCA I was greater than 100000 nM. For the same compound, the Ki on hCA II is greater than 100000 nM. Further, the Ki at hCA IX stood at 1290 nM. The Ki at hCA XII (setting [1]) amounted to 966 nM.
